Reference: patent US20260137807A1, “COMPOSITIONS AND METHODS FOR DELIVERING A MACROMOLECULE TO A CELL” (AstraZeneca AB, priority 2022, published 2026)

Tests used:
[1] = test system: Luc705 pre-mRNA in HeLa Luc705 cells; test: RT-PCR of corrected luciferase mRNA; type: cell-based; settings: with SSO, FIG. 9
Procedure: (§1) The percentage of corrected luciferase mRNA was quantified using a previously validated RT-PCR protocol. (Saher et al. (2019) Pharmaceutics. 11(12):666) Total RNA was extracted from HeLa Luc705 and Huh7 Luc705 cells using TRI Reagent (Sigma-Aldrich) according to the manufacturer's instructions.
(§2) For RT-PCR reactions using ONE STEP RT-PCR kit (QIAGEN), three nanograms of isolated RNA were utilized. The total reaction volume was 20 μL and the primer sequences used were:
(§3) The program for the RT-PCR was as follows: 55° C., 35 min, then 95° C., 15 min, for the reverse transcription step, directly followed by the PCR (94° C., 30 s, then 55° C., 30 s, then 72° C., 30 s) for 30 cycles and the final extension 72° C., 10 min. The PCR products were analyzed using a 1% agarose gel in 0.5× TAE buffer and visualized by SYBR Gold (Invitrogen, Molecular products) staining.
(§4) Versadoc imaging system with a cooled CCD camera (BioRad, Hercules, CA, USA) was used for the analysis of gels. Band intensities were analyzed with the Quantity One software (BioRad, Hercules, CA, USA). The percentage of correction was calculated using this equation (Band intensity of corrected RNA*100/(Band intensity of corrected RNA+Band intensity of uncorrected RNA).

[2] = test system: Luc705 pre-mRNA in Huh7 Luc705 cells; test: RT-PCR of corrected luciferase mRNA; type: cell-based; settings: with SSO, Huh7, FIG. 9
Procedure: as §1, §2, §3, §4

[3] = test system: MALAT1 mRNA; test: MALAT1 knockdown by gapmer, real-time PCR; type: cell-based, mouse; settings: 2 μM AZ3327 with 2 μM gapmer, N2A cells, FIG. 28
Procedure: N2A cells were cultured in Dulbecco's modified eagle medium (Gibco, 31,966) containing 10% fetal bovine serum (Gibco, 10,270) and were maintained at 37° C. in a humidified atmosphere containing 5% CO2, 21% O2.
For knockdown analysis of the gapmers, 24-well plates 50,000 N2A cells in 500 μL total volume of media per well. Twenty-four hours later, the cells were treated with 2 μM MALAT1-targeting gapmer oligonucleotide having the sequence GM5CAttm5ctaatagm5cAGM5C, where m5c is 5-methylcytidine and capital letters are LNA nucleosides (SEQ ID NO:4) (Oligo Only), 2 μM MALA T1-targeting gapmer oligonucleotide and simultaneously 2 μM AZ3327 (2 μM AZ3327), or Lipofectamine-complexed MALAT1 Oligonucleotide at 200 nM (LF2000). All treatments were performed in biological triplicates. […] RNA concentration was measured via Nanodrop and cDNA was synthesized with High Capacity cDNA Reverse Transcription kit as per manufacturer's instructions (ThermoFisher Scientific, 4368814).
Real-time PCR reactions were run on QuantStudio 7 Flex Real-Time PCR System (Applied Biosystems) using MALAT1 TaqMan assays (mouse Mm01227912, Applied Biosystems) following the manufacturer's instructions. […] The absolute mRNA expression levels for MALAT1 were calculated by linear regression fitting the PCR product to a standard curve. […]

[4] = test system: different cell lines (mCherry-GAL9); test: mCherry-GAL9 response between different cell lines; type: cell-based; settings: 0.31 to 10 μM, 2 hours post-dosing, FIG. 41 and 48
Procedure: All of the stable cell lines generated from HeLa and Huh7 cells were maintained and cultivated in Dulbecco's modified Eagle's medium (DMEM) with high glucose with GlutaMAX (Gibco, cat. no. 31966-021), 10% fetal bovine serum (gibco, cat. no. 10270-106), and 1% penicillin-streptomycin (gibco, cat. no. 15140-122) at 37° C., 5% CO2 in 95% humidity in T75 TC flask (Sarstedt, 83.3911.002). The cells were detached (trypsin 0.25% EDTA, 10 min) and passaged twice a week. HEK293 and HeLa, HepG2, Huh7 and U2OS mCherry-GAL9 cell lines were maintained in DMEM, NCI-H358 mCherry-GAL9 were maintained in RPMI (Gibco: 32430-027) and SH-SY5Y mCherry-GAL9 were maintained in DMEM/F12 (Gibco: 32430-027). All growth media was supplemented with 10% FBS and 1 μg/ml Puromycin (Gibco: A11138-03) to maintain reporter expression. All cells were routinely tested and mycoplasma negative.
HeLa and Huh7 cells were further submitted to the mCherry-GAL9-recruitment analysis with treatment with select compounds and observed for endosomal rupture at various time points (1 hour, 2 hours, and 16 hours). GAL9 response results at different doses (1.25-5 μM) of the selected compounds are shown in FIG. 33 (Huh7 cells) and FIG. 34 (HeLa cells). […] FIG. 40 further provides additional results comparing time (0.25 to 4 hours), dose of select compounds (0.31 to 10 μM) and GAL9 response in Huh7 cells. […]

[5] = test system: Floxed mice; test: Co-delivery of Cre recombinase, in vivo editing tdTomato reporter, ICV
Procedure: Cre recombinase ([…] […] […] […] […] […] […] (SEQ ID NO: 10)) was co-administered with Compound 4 to assess improvement in editing efficiency in an in vivo reporter system, in which edited mice express tdTomato. Floxed mice were administered via intracerebroventricular injection (ICV) with 60 pmol Cre recombinase and varying concentrations (2.5, 5.0, 7.5, 10.0, 12.5, and 15 μM) of Compound 4 as calculated in 40 μL CSF volume. Brain segments were analyzed by immunofluorescent staining 7 days post-treatment.

COc1nn(C2CCNCC2)cc1Nc1ncc(Cl)c(-n2ccc3c(C#N)cccc32)n1 [Compound 2]
levels of splice-switching (functional mRNA) [1]: greater levels of splice-switching than transfection with SSO using Lipofectamine 2000
levels of splice-switching (functional mRNA) [2]: greater levels of splice-switching than transfection with SSO using Lipofectamine 2000

COc1nn(C2CCNCC2)cc1Nc1ncc(F)c(-n2ccc3c(C#N)cccc32)n1 [Compound 4]
knockdown of MALAT1 mRNA expression as compared to oligo alone [3]: enhanced knockdown of MALAT1 mRNA expression
GAL9 response between different cell lines [4]: GAL9 responses across multiple cell lines of diverse background origins
in vivo editing in the brain (tdTomato staining) ([5]; ICV, 60 pmol Cre, 2.5-15 μM compound, 7 days post-treatment): enhanced by Compound 4 in a dose-dependent manner
staining in the lumbar sections of the spinal cord ([5]; ICV, 60 pmol Cre, FIG. 44B): obvious staining
location of editing ([5]; dissection segments, FIG. 44C): primarily at the injection site
